Source: patent US9266815B2, “Anti-metastatic agents predicated upon polyamine macrocyclic conjugates” (University of Central Florida Research Foundation, Inc., priority 2012, dated 2016)
Entries after “also recorded” stand apart in the source; their conditions may differ.

Columns and labels:
CHO-MG* cells = test: Cytotoxicity (MTS cell growth) in CHO-MG* cells; type: cell-based, Chinese hamster; details: for IC50: 48 h at 37° C., 1 mM AG 24 h prior to drug addition, triplicate
Excerpt: (§1) CHO cells were chosen along with a mutant cell line (CHO-MG*) to comment on how the synthetic conjugates gain access to the cells.^2c-e, 6 As discussed earlier, the CHO-MG* cell line is polyamine-transport deficient and represents a model for alternative modes of entry (other than PTS) including passive diffusion or use of another transporter. The CHO cell line on the other hand, represents cells with high polyamine transport activity.^7b, 10c A comparison of toxicity in these two CHO cell lines allowed for a screen that would detect selective use of the polyamine transporter. High utilization of the PTS would be very toxic to CHO cells. However, the CHO-MG* cells should be less sensitive to drugs which target the PTS.^2c-e, 6 Ultimately, a CHO-MG*/CHO IC50 ratio was determined to assess PTS selectivity. A high IC50 ratio (>>2) would be observed for PTS selective compounds.
(§2) CHO and CHO-MG* cells were grown in RPMI 1640 medium supplemented with 10% fetal calf serum and 1% penicillin/streptomycin. Note: the media must contain L-proline (2 μg/mL) for proper growth of the CHO-MG* cells. L3.6p1 cells were grown in RPMI 1640 medium supplemented with 10% FBS and 1% penicillin/streptomycin. All cells were grown at 37° C. under a humidified 5% CO2 atmosphere Aminoguanidine (1 mM for CHO and CHO-MG*, and 250 μM for L3.6p1) was added to the growth medium to prevent oxidation of the drugs by the enzyme (bovine serum amine oxidase) present in calf serum. Cells in early to mid-log phase growth were used.
(§3) Cell growth was assayed in sterile 96-well microtiter plates (Costar 3599, Corning, N.Y., USA). CHO and CHO-MG* cells were plated at 10,000 cells/mL. L3.6p1 cells were plated at 5,000 cells/mL. Drug solutions (10 μL per well) of appropriate concentration were added after an overnight incubation for each CHO cell line (90 μL of cell suspension). After exposure to the drug for 48 h, cell growth was determined by measuring formazan formation from 3-(4,5-dimethylthiazol-2-yl)-5-(3-carboxymethoxyphenyl)-2-(4-sulphenyl)-2H-tetrazolium, inner salt (MTS) using a SynergyMx BioTek microplate reader for absorbance ([…]) measurements.^23 A 4 h incubation period was used for the MTS assay in accordance with the manufacturer's protocol.^23

L3.6pl cells [1] = test: Cytotoxicity IC50 and MTD determination in L3.6pl cells; type: cell-based; details: for IC50 / L3.6pl MTD: 48 h at 37° C.; for IC50: 250 μM AG 24 h prior to drug addition; for L3.6pl MTD: maximum tolerated dose, 250 μM AG; for MTD higher than 0.6 μM (MTD of 44a): relative to parent 44a
Procedure: The MTD (Maximum tolerated dose) was determined for each of these compounds (Table III-2).
Note: the media must contain L-proline (2 μg/mL) for proper growth of the CHO-MG* cells. […] Cells in early to mid-log phase growth were used.
CHO and CHO-MG* cells were plated at 10,000 cells/mL. L3.6p1 cells were plated at 5,000 cells/mL. Drug solutions (10 μL per well) of appropriate concentration were added after an overnight incubation for each CHO cell line (90 μL of cell suspension).

CHO cells = test: Cytotoxicity (MTS cell growth) in CHO cells; type: cell-based, Chinese hamster; details: 48 h at 37° C., 1 mM AG 24 h prior to drug addition, triplicate
Excerpt: as §1, §2, §3

L3.6pl cells [2] = test: Wound healing assay (cell migration); type: cell-based, human; details: for anti-migration ability relative to parent 44a (in words): dosed at 0.6 μM
Procedure: A wound healing assay was employed to evaluate the anti-migration properties of compounds 44a-b, 46a-b, and 47a-b in L3.6p1 cells. This involved growing a monolayer of L3.6p1 cells and then scraping the monolayer with a sterile pipet tip to create a cell free zone in the middle of the well. The experiment was run in 96-well plate format. Wound healing was measured by time-course imaging of each well using a computer-controlled microscope with an x,y,z stage which allowed for reproducible imaging over time. Each drug was evaluated for its dose-dependent inhibition of cell migration. Each compound was evaluated at its own MTD in order to avoid cytotoxic effects which are well known to bias migration studies.^37a In addition, each compound was also tested at the MTD of 44a (Motu33) in order to directly compare the potency of these compounds at the same concentration.
Taking pictures of each wound needed to be done under a 2.5× objective in order to view ˜95% of each well. […] This problem was alleviated through the use of the ImageJ software.^47 This software allowed for enhancing the contrast between areas which were occupied by cells versus areas devoid of cells. In this regard, the software was able to accurately define the edges of each boundary. These capabilities then allowed for accurate area calculations which are seen in Table 3.
Anti-migratory properties were assayed in 96-well microtiter plates (Costar 3599, Corning, N.Y., USA). A stock suspension of L3.6p1 cells (5.5×10^5 cells/mL) was prepared. L3.6p1 cells (90 μL of stock/well) were plated and allowed to grow to a confluent monolayer (48 h). Each well was then scraped with a 1 μL sterile pipet tip, photographed with a Zeiss Stemi Microscope (2.5× objective) (time=0), and then allowed to incubate for an additional 48 h period (time=48 h). Over this 48 h period, the untreated control migrated to fill 50% of the original wound. At time zero, the respective drug solutions (10 μL) were added and cell migration monitored after 48 h incubation at 37° C. with 5% CO2. After drug exposure for 48 h, respective time=48 h photographs were taken by the Zeiss Stemi Microscope. These pictures (time=0 and time=48 h) were then compared and analyzed through the use of ImageJ software^47 by calculating the average area invaded by L3.6p1 cells.

[3] = system: pancreatic tumor (L3.6p1 cells); test: Mouse pancreatic tumor model, tumor size; type: in vivo; details: for tumor volume size: versus untreated control, preliminary data not shown
Excerpt: Further, the present inventors have found a dramatic increase in the therapeutic window available to these new agents relative to the parent compound 44a. These large carbocycles (e.g., the macrocyclic core) and carbocycle-alkyl groups (e.g., cyclopentadecyl-CH2— is preferred) represent a new N-substituent which imparts the unique properties of anti-migration activity and lower toxicity. Advantageously, the compounds described herein may be administered alone or in combination with known and/or new therapies (e.g., other chemotherapeutic agents or radiation) to help treat or prevent the spread of primary tumors and allow time for the intervention (e.g., other chemotherapeutic) to work on the primary tumor.
Thus, this represents an exciting unexpected discovery that not only can compounds of the present invention reduce metastasis, they reduce the tumor itself.

[4] = system: human pancreatic cancer L3.6p1 cells; test: Orthotopic mouse model, liver micrometastases; type: in vivo
Procedure: In one embodiment, the cancer is breast cancer. In another embodiment, the cancer is pancreatic cancer. […] The control was saline solution. The respective drugs (44a and 45) were dosed at their respective maximum tolerated dose (MTD).

[5] = system: original CHO-MG line and CHO; details: reported earlier (ref 2f); cited from earlier work
[6] = system: MDA-231 breast carcinoma cells; details: cited from earlier work
yeast cells = details: 60 μM; cited from earlier work
MDA-MB-231 cells = details: cited from earlier work
[7] = 2 μM (MTD of the conjugate), 48 h
[8] = Homo sapiens, 0.6 μM, 48 h, 250 μM AG

For `NCCCCNCCCCNC1CCCCCCCCCCCCCC1` [Compound 46b, N^1-(4-Aminobutyl)-N^4-cyclopentadecylbutane-1,4-diamine], the IC50 (CHO-MG* cells; Cricetulus griseus, CHO-MG) was 5.18 µM, the IC50 (L3.6pl cells [1]; Homo sapiens, L3.6pl) was 2.82 µM and the “L3.6pl MTD” value (L3.6pl cells [1]) was 2.0 µM. For the same compound, the IC50 (CHO cells; Cricetulus griseus, CHO) was 4.53 µM, the “anti-migration property (in words)” value (L3.6pl cells [2]) was “have this anti-migration property” and the “% Cell Migration” value (L3.6pl cells [2]; 0.6 μM, 48 h, 250 μM AG) was 32.5 (±4.3) %. The “% Cell Migration” value (L3.6pl cells [2]; [7]) was 31.6 (±0.5) %, the inhibition at 2 µM (L3.6pl cells [2]; Homo sapiens, L3.6pl, 2 μM (MTD of the conjugate), 48 h) was 33.4% and the inhibition at 0.6 µM (L3.6pl cells [2]; [8]) was 31.4%.
With `NCCCNCCCNCC1CCCCCCCCCCCCCC1` [Compound 47a, N^1-(3-aminopropyl)-N^3-(cyclopentadecylmethyl)propane-1,3-diamine] the IC50 (CHO-MG* cells; Cricetulus griseus, CHO-MG) was 87.3 µM, the “tumor growth in vivo” value ([3]; mouse studies, preliminary) was “inhibit tumor growth in vivo” and the tumor volume size [3] was “dramatic decreases in tumor volume size”. The IC50 (L3.6pl cells [1]; Homo sapiens, L3.6pl) was 89.4 µM, the “MTD higher than 0.6 μM (MTD of 44a)” value (L3.6pl cells [1]; L3.6pl) was > 130 fold and the “L3.6pl MTD” value (L3.6pl cells [1]) was 80 µM. The “less toxic than the parent (44a)” value (L3.6pl cells [1]; relative to 44a) was “about 130 times”, the IC50 (CHO cells; Cricetulus griseus, CHO) was 82.9 µM and the “anti-migration property (in words)” value (L3.6pl cells [2]) was “have this anti-migration property”. For the same compound, the “% Cell Migration” value (L3.6pl cells [2]; 0.6 μM, 48 h, 250 μM AG) was 29.2 (±3.2) %, the “% Cell Migration” value (L3.6pl cells [2]; 80 μM (MTD of the conjugate), 48 h) was 26.2 (±1.3) % and the inhibition at 80 µM (L3.6pl cells [2]; Homo sapiens, L3.6pl, 80 μM (MTD of the conjugate), 48 h) was 44.8%. The inhibition at 0.6 µM (L3.6pl cells [2]; [8]) was 38.4% and the “anti-migration ability relative to parent 44a (in words)” value (L3.6pl cells [2]) was “highest inhibition; also recorded: dramatic increase in anti-migration ability; also recorded: significant improvement in anti-migration ability”.
With `CCN(CCCNCCCN)Cc1c2ccccc2cc2ccccc12` [AntNEt33] the “anti-metastatic properties in vivo” value ([4]; compared with dihydromotuporamine C) was “failed to mimic the anti-metastatic properties”.
For `NCCCNCCCNC1CCCCCCCCCCCCCC1` [Compound 46a, N(3-Aminopropyl)-N3-cyclopentadecylpropane-1,3-diamine], the IC50 (CHO-MG* cells) was 5.95 µM, the IC50 (L3.6pl cells [1]) was 2.81 µM and the “L3.6pl MTD” value (L3.6pl cells [1]) was 2.0 µM. For the same compound, the IC50 (CHO cells) was 2.84 µM, the “anti-migration property (in words)” value (L3.6pl cells [2]) was “have this anti-migration property” and the “% Cell Migration” value (L3.6pl cells [2]; 0.6 μM, 48 h, 250 μM AG) was 38.2 (±2.5) %. The “% Cell Migration Inhibition” value (L3.6pl cells [2]; 0.6 μM, 48 h, 250 μM AG) was 19.3 (±1.3) %, the “% Cell Migration” value (L3.6pl cells [2]; [7]) was 31.8 (±0.1) % and the “% Cell Migration Inhibition” value (L3.6pl cells [2]; [7]) was 32.9 (±0.1) %.
In the case of `NCCCNCCCN1CCCCCCCCCCCCCC1` [Compound 44a, dihydromotuporamine C, reference compound], the IC50 (CHO-MG* cells; Cricetulus griseus, CHO-MG) is reported as 2.96 µM, the “CHO-MG*/CHO IC50 ratio” value (CHO-MG* cells; measure of PTS selectivity) is reported as 1 and the tumor volume size [3] is reported as “dramatic decreases in tumor volume size”. For the same compound, the “IC50 ratio in the original CHO-MG line and CHO” value [5] was 1, the IC50 (L3.6pl cells [1]; Homo sapiens, L3.6pl) was 0.99 µM and the “L3.6pl MTD” value (L3.6pl cells [1]) was 0.6 µM. The “cytotoxicity (in words)” value [6] was “highly cytotoxic”, the “growth of yeast cells” value (yeast cells) was “fully inhibit the growth” and the “degree of metastasis (liver micrometastases per slide)” value ([4]; dosed at MTD, control saline, FIG. 7) was “effective in reducing the degree of metastasis”. For the same compound, the “anti-invasive properties (in words)” value (MDA-MB-231 cells) was “good anti-invasive properties”, the IC50 (CHO cells; Cricetulus griseus, CHO) was 2.9 µM and the “% Cell Migration” value (L3.6pl cells [2]; 0.6 μM, 48 h, 250 μM AG) was 37.8 (±3.3) %. For the same compound, the inhibition at 0.6 µM (L3.6pl cells [2]; [8]) was 20.3%.
With `NCCCCNCCCCNCC1CCCCCCCCCCCCCC1` [Compound 47b, N^1-(4-aminobutyl)-N^4-(cyclopentadecylmethyl)butane-1,4-diamine] the IC50 (CHO-MG* cells; Cricetulus griseus, CHO-MG) was 45.5 µM, the IC50 (L3.6pl cells [1]; Homo sapiens, L3.6pl) was 48.7 µM and the “MTD higher than 0.6 μM (MTD of 44a)” value (L3.6pl cells [1]; L3.6pl) was > 60 fold. For the same compound, the “L3.6pl MTD” value (L3.6pl cells [1]) was 40 µM, the IC50 (CHO cells; Cricetulus griseus, CHO) was 47.8 µM and the “% Cell Migration” value (L3.6pl cells [2]; 0.6 μM, 48 h, 250 μM AG) was 33.4 (±1.8) %. The “% Cell Migration” value (L3.6pl cells [2]; 40 μM (MTD of the conjugate), 48 h) was 25.9 (±2.1) %, the inhibition at 40 µM (L3.6pl cells [2]; Homo sapiens, L3.6pl, 40 μM (MTD of the conjugate), 48 h) was 45.3% and the inhibition at 0.6 µM (L3.6pl cells [2]; [8]) was 29.6%. The “anti-migration ability relative to parent 44a (in words)” value (L3.6pl cells [2]) was “dramatic increase in anti-migration ability”.
